Patent publication US10172951B2, “Dendrimer based nanodevices for therapeutic and imaging purposes” (priority 2009, dated 2019)

Experiments:
[1] = Transmembrane transport and permeability, chorion; assay type: in vitro ADME, human; conditions: 0.3 mg/mL
From the text: (§1) All human fetal membrane specimens were obtained at the time of cesarean section for obstetrical indications. The fetal membrane comprising chorioamniotic membrane (intact membranous tissue containing both amnion and chorion together) (n=7) and amnion (n=7) and chorion (n=7) were separately procured (size 6×9″). Each membrane was cut into 9 pieces for the 9 sets of diffusion chamber. The fresh membranes were collected immediately after the delivery, washed with PBS to remove the blood and stored in PBS until (˜1 h at 4° C.) it was mounted on the diffusion chamber (37±0.5° C.). Excess membranes were trimmed. The diffusion experiments were performed for 48 hours by mounting the membrane in the chamber to study the transport across the membranes. In all the experiments with chorioamniotic membrane the choriodecidua (maternal side) was placed facing the donor chamber and the amnionic epithelium (fetal side) was facing the receptor chamber. The chorion and amnion were mechanically separated by gently pulling the two membranes apart. For the chorion, the side attached to amnion was placed facing the receptor chamber and for the amnion the side attached to the chorion was placed facing the donor chamber in the diffusion apparatus. For histological evaluation, the tissue samples were collected at 0.5, 1, 2, 3 and 4 hours for and were fixed in 10% formalin overnight. Further, some sections were analyzed by hematoxylin and eosin (H & E) staining. The membrane thickness was measured using the Mitutoyo Super Caliper by placing the respective membranes between the two glass slides and subtracting the thickness of the glass slides without the membrane.
(§2) Permeation experiments were carried out using a two-chamber (donor and receptor) side-by-side Permegear diffusion cell with a chamber volume of 3 mL and with a diameter of 13 mm and a diffusional area of 1.32 cm^2. The fetal membranes (chorion and amnion together, amnion and chorion) each (n=9) were mounted between two halves of the donor and receptor cell (9 sets), which were further clamped together and sealed tightly with the rubber packing at the end of each glass chamber. The receptor cell (volume 3 mL) was filled with sterile PBS (pH 7.4). The donor cell (volume 3 mL) was filled with solution of compounds whose permeability was evaluated. […] The system was maintained at 37° C. by using a circulating water bath and a jacket surrounding each cell. The donor and receiving medium was continuously stirred (600 rpm) with a magnetic bar to avoid stagnant aqueous diffusion layer effects. Aliquots (200 μL) were collected from the receptor cell every 30 min till first 6 hours and at predetermined intervals thereafter and replaced with equal volume of PBS to maintain sink conditions throughout the study. […] The concentration of compound in the receptor medium was determined using a Molecular Devices SpectroMax M2, UV visible and Fluorescent plate reader at ex 495/em 521. The cumulative amount of compound transported across the membrane in the receptor cell was determined using a calibration curve (a transport of 50% corresponds equilibrium achieved). All the experiments were conducted in dark room. All experiments were done in triplicate and the results are reported as mean±STDev.
(§3) [formula] […] The thickness of the chorioamnion, chorion and amnion was 0.22 mm, 0.16 mm and 0.05 mm respectively (n=7), as measured with the help of Mitutoyo Super Caliper. […]

[2] = Brain biodistribution of FITC-G4-OH after subarachnoid/subdural injection (microscopy, HPLC); assay type: in vivo, rabbit; conditions: 24 hours after injection into CSF
Procedure: Animals in each group were euthanized 24 hours after subarachnoid administration of FITC-G4-OH with an overdose of pentobarbital (120 mg/kg administered intra-peritoneal). Following administration of the drug, animals were secured to a stainless steel surgical apparatus, the heart was exposed rapidly and a butterfly needle was inserted and secured in the left apex of the heart, the vena cava was incised and perfusion was initiated. Animals were perfused under pressure with 30 mL chilled physiological saline (0.9%) and 120 mL of 4% paraformaldehyde in phosphate buffer (0.1 M, pH 7.4) at a constant rate of 5 ml/min using a constant pressure pump, brains were removed and immersed in the same fixative for 48 hours, cryoprotected using graded solutions of sucrose and frozen at −80° C. until they were sectioned. […]
Brain tissue samples weighing approximately 1 mg were collected from healthy pups and CP pups and used for analysis. […] The samples were analyzed by HPLC and the amount of dendrimer-FITC quantified using the standard calibration curve for FITC-G4-OH. To estimate the fluorescence as a measure of concentration of FITC-G4-OH localized in hippocampus or cortex, the samples were analyzed by reverse phase-HPLC and the amount was quantified using the standard calibration curve for FITC-G4-OH. […]

[3] = Transmembrane transport and permeability, chorioamnion; assay type: in vitro ADME, human; conditions: 0.3 mg/mL
From the text: as §1
Permeation experiments were carried out using a two-chamber (donor and receptor) side-by-side Permegear diffusion cell with a chamber volume of 3 mL and with a diameter of 13 mm and a diffusional area of 1.32 cm^2. The fetal membranes (chorion and amnion together, amnion and chorion) each (n=9) were mounted between two halves of the donor and receptor cell (9 sets), which were further clamped together and sealed tightly with the rubber packing at the end of each glass chamber. […] The donor cell (volume 3 mL) was filled with solution of compounds whose permeability was evaluated. […] The concentration of compound in the receptor medium was determined using a Molecular Devices SpectroMax M2, UV visible and Fluorescent plate reader at ex 495/em 521. The cumulative amount of compound transported across the membrane in the receptor cell was determined using a calibration curve (a transport of 50% corresponds equilibrium achieved). […]
as §3

[4] = Permeability across the rabbit amniotic membrane (side by side diffusion chamber); assay type: in vitro ADME; conditions: in 1 hour, 37° C.
Procedure: The permeability of the G4-PAMAM-FITC across the normal rabbit amniotic membrane and endotoxin treated rabbit amniotic membrane was studied using a side by side Permegear diffusion chamber at 37° C. for 48 hours. Endotoxin treated membranes were used to mimic the condition of E. coli infection in uterus. The freshly excised rabbit membranes obtained after sacrificing the rabbit was placed in between the donor and receptor chamber.

[5] = Transmembrane transport and permeability, amnion; assay type: in vitro ADME, human
From the text: as §1, §2
[formula] To determine the permeability coefficient, P, a plot of −V/2A ln (1−2Ct/C0) against t was constructed and linear fitting was performed. The slope of the linear portion of the graph yields a permeability coefficient. The thickness of the chorioamnion, chorion and amnion was 0.22 mm, 0.16 mm and 0.05 mm respectively (n=7), as measured with the help of Mitutoyo Super Caliper. […] The FIGS. 93A-C and FIG. 94 show the plots used for calculation of the permeability and the correlation in all the cases ranged from 0.96 to 0.99.

[6] = not told; cited from earlier work

Question: With “fluorescein isothiocyanate [FITC, reference compound]” as the molecule, how does the “Permeability coefficient, Chorion” value [1] read?
Answer: 1.32×10^−6 cm^2/s

Question: And the “regional and cellular distribution in brain” value [2]?
Answer: non-specific uptake in all layers of the cortex and ventricular region

Question: And the “Permeability coefficient, Chorioamnion” value [3]?
Answer: 7.93×10^−7 cm^2/s

Question: What about the crossed the membrane [4] of the same molecule?
Answer: 50%

Question: And the “Permeability coefficient, Amnion” value ([5]; 0.3 mg/mL)?
Answer: 2.26×10^−6 cm^2/s

Question: What about the transport across amnion ([5]; in 2 hours, 0.3 mg/mL) of the same molecule?
Answer: 49%

Question: What about the transport across amnion ([5]; in 5 hours) of the same molecule?
Answer: 50%

Question: For `CC(C)(N)C(=O)O` [2-aminoisobutyrate], which in vitro permeability [6] is on record?
Answer: 1.5×10^−6 cm^2/s
